Measured values reported in ChEMBL document CHEMBL5104141, “Discovery and antiviral profile of new sulfamoylbenzamide derivatives as HBV capsid assembly modulators” (Bioorg Med Chem Lett, 2022).
Values after ≈ are worked out from the molar mass of the structure shown.

Experiments:
[1] = target: Core antigen (Hepatitis B virus) (UniProt Q03732); assay: Modulation of capsid assembly in HBV infected in human HePAD38 cells assessed as inhibition of viral DNA replication measured after 96 hrs by qPCR analysis; assay type: cell-based; settings: filed as modulator
Core antigen (Hepatitis B virus), sequence (Q03732 as listed by the source): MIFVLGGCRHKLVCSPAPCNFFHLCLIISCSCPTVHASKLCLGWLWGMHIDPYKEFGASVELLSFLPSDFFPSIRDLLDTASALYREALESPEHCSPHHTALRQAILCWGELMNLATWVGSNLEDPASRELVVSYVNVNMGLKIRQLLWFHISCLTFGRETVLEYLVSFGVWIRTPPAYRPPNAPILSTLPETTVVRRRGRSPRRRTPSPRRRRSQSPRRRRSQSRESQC

[2] = Cytotoxicity against human HePAD38 cells up to 10 uM by CellTiter-Blue assay; assay type: toxicity, cell-based; settings: hepad38, 10 µM
[3] = Mutagenicity in Salmonella typhimurium upto 1250 ug/plate in absence of S9 fraction by Ames test; assay type: toxicity; settings: salmonella enterica subsp. enterica serovar typhimurium, dose < 1250 µg
[4] = Ratio of EC50 for antiviral activity against HBV harboring core protein V124G mutant to EC50 for antiviral activity against HBV harboring wild type core protein; assay type: functional, Hepatitis B virus
[5] = Half life in C57BL/6 mouse at 2 mg/kg, iv; assay type: ADME, organism-based; settings: in vivo
Hepatitis B virus [6] = assay: Antiviral activity against HBV in HBV transgenic mouse assessed as inhibition of viral replication by measuring log reduction of serum HBV DNA content at 25 mg/kg, po BID for 3 days; assay type: functional; settings: time 3 day
Hepatitis B virus [7] = assay: Antiviral activity against HBV in HBV transgenic mouse assessed as inhibition of viral replication by measuring fold reduction of serum HBV DNA content at 25 mg/kg, po BID for 3 days relative to control; assay type: functional; settings: time 3 day
Hepatitis B virus [8] = assay: Antiviral activity against HBV in HBV transgenic mouse assessed as inhibition of viral replication by measuring reduction of serum HBV DNA content administered orally BID for 3 days; assay type: functional, organism-based; settings: dose 25-75 mg/kg, route po, time 3.0 day, DDE = dose-dependent effect
Cytochrome P450 3A4 = Cytochrome P450 3A4 (Homo sapiens, UniProt P08684); assay: Inhibition of CYP3A4 (unknown origin); assay type: ADME
Cytochrome P450 3A4, sequence (P08684 whole entry): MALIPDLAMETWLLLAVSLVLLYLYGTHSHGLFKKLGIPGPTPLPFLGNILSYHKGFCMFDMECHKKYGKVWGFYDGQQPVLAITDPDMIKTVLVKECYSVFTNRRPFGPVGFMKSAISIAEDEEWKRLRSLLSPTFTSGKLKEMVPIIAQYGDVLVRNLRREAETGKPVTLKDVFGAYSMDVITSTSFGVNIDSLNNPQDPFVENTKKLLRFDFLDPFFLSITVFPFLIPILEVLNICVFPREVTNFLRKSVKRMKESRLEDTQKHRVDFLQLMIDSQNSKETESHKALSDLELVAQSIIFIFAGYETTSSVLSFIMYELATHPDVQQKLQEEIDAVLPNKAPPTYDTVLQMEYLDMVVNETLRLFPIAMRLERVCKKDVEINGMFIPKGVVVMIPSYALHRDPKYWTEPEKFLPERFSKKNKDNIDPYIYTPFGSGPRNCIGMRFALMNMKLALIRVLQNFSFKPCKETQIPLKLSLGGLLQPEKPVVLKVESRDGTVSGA

[9] = Ratio of EC50 for antiviral activity against HBV harboring core protein T33N mutant to EC50 for antiviral activity against HBV harboring wild type core protein; assay type: functional, Hepatitis B virus
Cytochrome P450 2D6 = Cytochrome P450 2D6 (Homo sapiens, UniProt P10635); assay: Inhibition of CYP2D6 (unknown origin); assay type: ADME
Cytochrome P450 2D6, sequence (P10635 whole entry): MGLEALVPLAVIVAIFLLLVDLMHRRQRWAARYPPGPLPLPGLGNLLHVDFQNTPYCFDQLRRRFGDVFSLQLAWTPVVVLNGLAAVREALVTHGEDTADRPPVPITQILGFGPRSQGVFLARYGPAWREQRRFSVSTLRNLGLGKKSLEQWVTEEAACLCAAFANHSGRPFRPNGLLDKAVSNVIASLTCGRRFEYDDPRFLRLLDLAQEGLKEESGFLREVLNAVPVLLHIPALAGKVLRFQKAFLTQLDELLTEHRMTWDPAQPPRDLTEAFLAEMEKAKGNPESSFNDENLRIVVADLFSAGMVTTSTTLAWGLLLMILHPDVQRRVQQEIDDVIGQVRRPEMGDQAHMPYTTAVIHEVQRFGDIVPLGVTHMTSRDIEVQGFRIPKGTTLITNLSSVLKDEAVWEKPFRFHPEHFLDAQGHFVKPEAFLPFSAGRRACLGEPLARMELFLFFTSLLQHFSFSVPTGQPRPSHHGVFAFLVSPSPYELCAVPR

[10] = Volume of distribution in C57BL/6 mouse at 2 mg/kg, iv; assay type: ADME, organism-based; settings: in vivo
[11] = Ratio of EC50 for antiviral activity against HBV harboring core protein F23Y mutant to EC50 for antiviral activity against HBV harboring wild type core protein; assay type: functional, Hepatitis B virus
[12] = Mutagenicity in Salmonella typhimurium upto 1250 ug/plate in presence of S9 fraction by Ames test; assay type: toxicity, subcellular; settings: salmonella enterica subsp. enterica serovar typhimurium, dose < 1250 µg
HepG2 2.2.15 = assay: Cytotoxicity against human HepG2.2.15 cells up to 10 uM by CellTiter-Blue assay; assay type: toxicity, cell-based; settings: hepg2 2.2.15, 10 µM
[13] = Toxicity in HBV transgenic mouse assessed as liver damage at 25 to 75 mg/kg, po BID for 3 days; assay type: organism-based; settings: in vivo, 72 h, dose 25-75 mg/kg, time 3 day
[14] = Kinetic solubility of the compound at pH 7.4; assay type: physicochemical; settings: buffer, read-out: Kinetic_solubility
Hepatitis B virus [15] = assay: Antiviral activity against HBV in HBV transgenic mouse assessed as inhibition of viral replication by measuring fold reduction of serum HBV DNA content at 75 mg/kg, po BID for 3 days relative to control; assay type: functional; settings: time 3 day
[16] = Plasma clearance in C57BL/6 mouse at 2 mg/kg, iv; assay type: ADME, organism-based
[17] = Ratio of EC50 for antiviral activity against HBV harboring core protein L37Q mutant to EC50 for antiviral activity against HBV harboring wild type core protein; assay type: functional, Hepatitis B virus
[18] = Oral bioavailability in C57BL/6 mouse at 5 mg/kg; assay type: ADME, organism-based; settings: in vivo
[19] = Ratio of EC50 for antiviral activity against HBV harboring core protein Y118F mutant to EC50 for antiviral activity against HBV harboring wild type core protein; assay type: functional, Hepatitis B virus
[20] = Ratio of drug concentration in liver to blood in C57BL/6 mouse at 5 mg/kg, po measured after 4 hrs; assay type: ADME, organism-based
Cytochrome P450 1A2 = target: T1, Cytochrome P450 1A2 (Homo sapiens, UniProt P05177); assay: Inhibition of CYP1A2 (unknown origin); assay type: ADME
T1 sequence (P05177 whole entry): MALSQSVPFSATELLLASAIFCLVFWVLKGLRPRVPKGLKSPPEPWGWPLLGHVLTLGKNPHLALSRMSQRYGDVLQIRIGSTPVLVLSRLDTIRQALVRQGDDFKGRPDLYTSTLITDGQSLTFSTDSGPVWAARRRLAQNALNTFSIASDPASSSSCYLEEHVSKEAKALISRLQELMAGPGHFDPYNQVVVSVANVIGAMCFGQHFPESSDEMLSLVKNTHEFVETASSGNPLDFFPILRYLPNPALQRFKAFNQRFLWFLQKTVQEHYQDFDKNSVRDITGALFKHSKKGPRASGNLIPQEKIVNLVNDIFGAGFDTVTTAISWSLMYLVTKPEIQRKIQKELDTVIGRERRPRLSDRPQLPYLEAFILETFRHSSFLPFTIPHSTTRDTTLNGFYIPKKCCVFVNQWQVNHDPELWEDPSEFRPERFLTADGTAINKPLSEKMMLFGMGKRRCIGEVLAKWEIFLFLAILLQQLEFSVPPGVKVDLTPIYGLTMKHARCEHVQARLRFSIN

[21] = AUC in C57BL/6 mouse at 5 mg/kg, po and 2 mg/kg, iv; assay type: ADME, organism-based; parameters: dose 5 mg/kg, route po; settings: in vivo
[22] = target: Voltage-gated inwardly rectifying potassium channel KCNH2 (Homo sapiens, UniProt Q12809); assay: Inhibition of hERG; assay type: toxicity
Voltage-gated inwardly rectifying potassium channel KCNH2, sequence (Q12809 whole entry): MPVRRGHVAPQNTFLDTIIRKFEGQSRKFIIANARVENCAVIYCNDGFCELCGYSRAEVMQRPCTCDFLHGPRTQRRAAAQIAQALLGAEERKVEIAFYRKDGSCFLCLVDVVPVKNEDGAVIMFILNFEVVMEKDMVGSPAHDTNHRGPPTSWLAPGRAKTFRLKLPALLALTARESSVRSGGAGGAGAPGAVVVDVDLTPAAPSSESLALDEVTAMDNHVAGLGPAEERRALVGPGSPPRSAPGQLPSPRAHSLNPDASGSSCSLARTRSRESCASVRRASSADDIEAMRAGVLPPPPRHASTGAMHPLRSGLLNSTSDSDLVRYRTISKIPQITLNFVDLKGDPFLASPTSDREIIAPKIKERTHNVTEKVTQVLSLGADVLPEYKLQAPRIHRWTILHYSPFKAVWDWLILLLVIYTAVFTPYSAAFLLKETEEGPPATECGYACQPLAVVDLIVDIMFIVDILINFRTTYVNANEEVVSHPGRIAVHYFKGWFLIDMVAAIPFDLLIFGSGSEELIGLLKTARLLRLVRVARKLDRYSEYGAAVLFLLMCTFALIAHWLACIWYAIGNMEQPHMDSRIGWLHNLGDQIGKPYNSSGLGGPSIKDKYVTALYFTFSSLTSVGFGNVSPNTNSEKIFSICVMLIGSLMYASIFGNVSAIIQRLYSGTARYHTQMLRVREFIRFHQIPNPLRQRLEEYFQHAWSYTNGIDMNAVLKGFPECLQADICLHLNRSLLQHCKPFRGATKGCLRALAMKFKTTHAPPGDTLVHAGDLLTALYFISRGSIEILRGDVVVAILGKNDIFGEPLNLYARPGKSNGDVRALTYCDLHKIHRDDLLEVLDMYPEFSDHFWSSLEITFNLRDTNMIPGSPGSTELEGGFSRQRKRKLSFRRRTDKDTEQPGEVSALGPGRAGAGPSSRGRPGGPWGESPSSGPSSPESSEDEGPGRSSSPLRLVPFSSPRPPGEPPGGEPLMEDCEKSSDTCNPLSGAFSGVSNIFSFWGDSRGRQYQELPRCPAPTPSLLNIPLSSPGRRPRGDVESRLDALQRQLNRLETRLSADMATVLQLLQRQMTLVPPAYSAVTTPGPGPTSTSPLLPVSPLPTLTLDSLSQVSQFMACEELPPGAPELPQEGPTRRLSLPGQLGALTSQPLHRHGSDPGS

[23] = target: Core antigen (Hepatitis B virus) (UniProt Q03732); assay: Modulation of capsid assembly in HBV infected in human HePAD38 cells assessed as fold shift in inhibition of viral DNA replication in presence of 40% normal human serum measured after 96 hrs by qPCR analysis; assay type: cell-based; settings: filed as modulator
[24] = Metabolic stability of the compound in mouse hepatocytes assessed as parent compound remaining measured after 4 hrs; assay type: ADME, cell-based, Hepatocyte; settings: read-out: Stability
[25] = Ratio of EC50 for antiviral activity against HBV harboring core protein T33P mutant to EC50 for antiviral activity against HBV harboring wild type core protein; assay type: functional, Hepatitis B virus
Hepatitis B virus [26] = assay: Antiviral activity against HBV in HBV transgenic mouse assessed as inhibition of viral replication by measuring reduction of serum HBV DNA content at 25 to 75 mg/kg, po BID for 3 days; assay type: functional, organism-based; settings: dose 25-75 mg/kg, time 3.0 day, TDE = time-dependent effect
[27] = Cmax in C57BL/6 mouse at 5 mg/kg, po; assay type: ADME, organism-based; parameters: dose 5 mg/kg, route po; settings: in vivo
Hepatitis B virus [28] = assay: Antiviral activity against HBV in HBV transgenic mouse assessed as inhibition of viral replication by measuring log reduction of serum HBV DNA content at 75 mg/kg, po BID for 3 days; assay type: functional; settings: time 3 day
[29] = Mutagenicity in Escherichia coli upto 1250 ug/plate in presence of S9 fraction by Ames test; assay type: toxicity, subcellular; settings: dose < 1250 µg
[30] = Mutagenicity in Escherichia coli upto 1250 ug/plate in absence of S9 fraction by Ames test; assay type: toxicity; settings: dose < 1250 µg
[31] = Ratio of EC50 for antiviral activity against HBV harboring core protein I105T mutant to EC50 for antiviral activity against HBV harboring wild type core protein; assay type: functional, Hepatitis B virus
[32] = Ratio of EC50 for antiviral activity against HBV harboring core protein T128I mutant to EC50 for antiviral activity against HBV harboring wild type core protein; assay type: functional, Hepatitis B virus
[33] = Ratio of EC50 for antiviral activity against HBV harboring core protein F110I mutant to EC50 for antiviral activity against HBV harboring wild type core protein; assay type: functional, Hepatitis B virus
[34] = Metabolic stability of the compound in human hepatocytes assessed as parent compound remaining measured after 4 hrs; assay type: ADME, cell-based, Hepatocyte; settings: read-out: Stability

SMILES: Nc1cc(Br)c(C(=O)Nc2cc(F)c(F)c(F)c2)cc1S(N)(=O)=O
- EC90 [1]: 2780 nM

SMILES: Nc1ccc(C(=O)Nc2ccc(F)c(Cl)c2)cc1S(N)(=O)=O
- EC90 [1]: 360 nM

SMILES: CNc1ccc(C(=O)Nc2cc(F)c(F)c(F)c2)cc1S(N)(=O)=O
- EC90 [1]: 20800 nM

SMILES: Nc1cc(F)c(C(=O)Nc2cc(F)c(F)c(F)c2)cc1S(N)(=O)=O
- EC90 [1]: 1090 nM

SMILES: Cc1cc(N)c(S(N)(=O)=O)cc1C(=O)Nc1ccc(F)c(C(F)(F)F)c1
- EC90 [1]: 2630 nM

SMILES: Cc1cc(NC(=O)c2cc(S(N)(=O)=O)c(N)cc2C)ccc1F
- EC90 [1]: 390 nM

SMILES: Nc1ccc(C(=O)Nc2ccc(F)c(C(F)F)c2)cc1S(N)(=O)=O
- EC90 [1]: 480 nM

SMILES: O=C(Nc1cc(F)c(F)c(F)c1)c1ccc(F)c(S(=O)(=O)N2CCC(O)CC2)c1
- EC90 [1]: 1130 nM

SMILES: Cc1cc(N)c(S(N)(=O)=O)cc1C(=O)Nc1cc(F)c(F)c(F)c1
- EC90 [1]: 260 nM
- Activity [2]: Non-Toxic
- Activity [3]: Non-Toxic
- Ratio EC50 [4]: 3.1
- half-life [5]: 3.2 h
- log(activity) (Hepatitis B virus [6]): 1.18
- fold change (FC) (Hepatitis B virus [7]): 15.2
- Activity (Hepatitis B virus [8]): Dde
- IC50 (Cytochrome P450 3A4): > 30000 nM
- Ratio EC50 [9]: 3.1
- IC50 (Cytochrome P450 2D6): > 15000 nM
- Vd [10]: 2.3 L/kg
- Ratio EC50 [11]: 3.1
- Activity [12]: Non-Toxic
- Activity (HepG2 2.2.15): Non-Toxic
- Activity [13]: Non-Toxic
- solubility kinetic [14]: 29.2 µM (≈ 10.5 µg/mL)
- fold change (FC) (Hepatitis B virus [15]): 48.3
- clearance [16]: 8 mL/min/kg
- Ratio EC50 [17]: 3.1
- bioavailability [18]: 114%
- Ratio EC50 [19]: 3.1
- Kp at 4 h [20]: 10
- IC50 (Cytochrome P450 1A2): 12400 nM
- AUC [21]: 33 µM·h
- IC50 [22]: > 30000 nM
- fold change (FC) [23]: 16.9
- remaining at 4 h [24]: 100%
- Ratio EC50 [25]: 3.1
- Activity (Hepatitis B virus [26]): Tde
- Cmax [27]: 3.6 µM
- log(activity) (Hepatitis B virus [28]): 1.68
- Activity [29]: Non-Toxic
- Activity [30]: Non-Toxic
- Ratio EC50 [31]: 3.1
- Ratio EC50 [32]: 3.1
- Ratio EC50 [33]: 3.1
- remaining at 4 h [34]: 90%

SMILES: Cc1cc(N)c(S(N)(=O)=O)cc1C(=O)Nc1ccc(F)c(Cl)c1
- EC90 [1]: 390 nM

SMILES: Cc1cc(C(=O)Nc2cc(F)c(F)c(F)c2)cc(S(N)(=O)=O)c1N
- EC90 [1]: 1540 nM

SMILES: N#Cc1cc(NC(=O)c2ccc(N)c(S(N)(=O)=O)c2)ccc1F
- EC90 [1]: 2530 nM

SMILES: Cc1cc(N)c(S(N)(=O)=O)cc1C(=O)Nc1ccc(F)c(C#N)c1
- EC90 [1]: 1210 nM

SMILES: Nc1ccc(C(=O)Nc2ccc(F)c(C(F)(F)F)c2)cc1S(N)(=O)=O
- EC90 [1]: 3650 nM

SMILES: NS(=O)(=O)c1cc(C(=O)Nc2cc(F)c(F)c(F)c2)ccc1F
- EC90 [1]: 8130 nM

SMILES: Cc1cc(NC(=O)c2ccc(N)c(S(N)(=O)=O)c2)ccc1F
- EC90 [1]: 700 nM

SMILES: Nc1ccc(C(=O)Nc2cc(F)c(F)c(F)c2)cc1S(N)(=O)=O
- EC90 [1]: 490 nM

SMILES: Nc1cc(Cl)c(C(=O)Nc2cc(F)c(F)c(F)c2)cc1S(N)(=O)=O
- EC90 [1]: 1240 nM

SMILES: Cc1cc(N)c(S(N)(=O)=O)cc1C(=O)Nc1ccc(F)c(C(F)F)c1
- EC90 [1]: 660 nM
